# How the values were obtained:
# [1] = system: high-affinity rolipram-binding sites (HARBSs) of guinea pig brain cell membranes; experiment: Displacement of 2 nM [3H]-rolipram from high-affinity rolipram-binding sites (PDE4H)
# Method: When the above-mentioned guinea pigs were sacrificed, the whole brains were removed and homogenized with a glass/Teflon homogenizer (Glas-Col, Terre Haute, IN, USA) in 10 volumes of cold medium (pH 6.5) containing 20 mM Bis-Tris, 2 mM benzamidine, 2 mM EDTA, 50 mM sodium chloride, 0.1 mM PMSF, and 1 mM dithiothreitol. At 4°C, the homogenate was centrifuged at 170 g for 5 min to remove connective tissues and blood vessels. The suspended homogenate was then re-centrifuged at 40,000 g for 30 min to separate the cytosolic and particulate portions. The particulate portion was re-suspended in a suspension at a concentration of 400 mg/ml (wet weight/volume), after washing three times with homogenizing buffer. The particulate portion mainly consisted of cell membranes. […] Briefly, the reaction buffer consisted of 50 mM Tris-HCl and 5 mM MgCl2 (pH 7.5). […] After 1 h, the reaction was terminated by moving the reaction vessel into crushed ice. Then the reaction mixture was transferred onto Whatman GF/B glass-fiber filters, which were soaked in a 0.3% polyethyleneimine solution in a mini-funnel.
# PDE1 = experiment: Inhibition of PDE1 activity, two-step procedure; format: biochemical; settings: homogenate of guinea pig lungs or hearts
# Method: Activities of PDE1~5 in the homogenate of guinea pig lungs or hearts were measured by a two-step procedure according to the previous method, using cAMP with [^3H]-cAMP or cGMP with [^3H]-cGMP as substrates. […] The reagents and homogenate were mixed on ice, and the reaction was initiated by transferring the mixture to a water bath at 37°C. Following a 30-min incubation, the reaction was stopped by transferring the reaction vessel to a bath of boiling water for 3 min. After cooling on ice, 20 μl of a 1 mg/ml solution of Crotalus atrox snake venom was added to the reaction mixture, and the mixture was incubated at 37°C for 10 min. Unreacted [^3H]-cAMP or [^3H]-cGMP was removed by the addition of 500 μl of a 1-in-1 Tris-HCl (40 mM) buffer suspension of Dowex resin (1 × 8-200) with incubation on ice for 30 min. Each tube was then centrifuged at 3700 g for 2 min, and 150 μl of the supernatant was removed for liquid scintillation counting. […] The total protein in each fraction used was assayed according to a previous method. PDE activities are reported as nmol/mg/min.
# [2] = system: ovalbumin-induced airway hyperresponsiveness; experiment: Airway hyperresponsiveness, barometric plethysmography (Penh) in OVA-sensitized and challenged mice; format: in vivo, BABL/c mice
# Method: (§1) According to the schedule (Figure 1), ten female BABL/c mice in each group were sensitized by an intraperitoneal (i.p.) injection of 20 μg of OVA emulsified in 2.25 mg of an aluminum hydroxide gel, prepared from aluminum sulfate hexadecahydrate, in a total volume of 100 μl on days 0 and 14. On day 21, these mice were injected with (i.p.) 100 μl of a mixture of 1% OVA and Freund's complete adjuvant (1:1). Mice were challenged via the airway using 1% OVA in saline for 30 min on days 28, 29, and 30 by ultrasonic nebulization. After the last of OVA challenges, AHR was assessed on day 32 (48 h after 1% OVA provocation) in each group. […] For comparison, sham-treated mice were challenged with saline instead of 1% OVA (non-challenged). […] AHR was assessed using two methods: (1) in anesthetized ventilated mice, AHR was assessed as previously described by measuring changes in the airway resistance (RL, cmH2O/ml/sec) and lung dynamic compliance (Cdyn, ml/cmH2O) after challenge with aerosolized methacholine (MCh, 0.78~25 mg/ml) using the FlexiVent system (SCIREQ, Montreal, Quebec, Canada). Anesthetized (urethane 600 mg/kg and chloralose 120 mg/kg, i.p.), tracheostomized (stainless-steel cannula, 18 G) mice were mechanically ventilated (at 150 breaths/min, with a tidal volume of 10 ml/kg, positive end-expiratory pressure of 3 cmH2O). (2) in unrestrained animals by barometric plethysmography using a whole-body plethysmograph (WBP) and analyzed using software of Life Science Suite P3 Analysis Modules (Gould, LDS Test and Measurement LLC, Valley View, OH, USA). Mice were placed into the main chamber of the WBP, and the baseline enhanced pause (Penh) value was determined.
# [3] = system: ovalbumin-induced airway hyperresponsiveness; experiment: Airway hyperresponsiveness, FlexiVent (RL, Cdyn) in OVA-sensitized and challenged mice; format: in vivo, BABL/c mice
# Method: as §1
# [4] = 3~30 μmol/kg p.o., MCh 6.25~25 mg/ml
smiles,measurement,setting,value
"COc1cc(O)c2c(c1)O[C@H](c1ccc(OC)c(OC)c1)CC2=O [HDME, hesperetin-7,3'-O-dimethylether]",EC50,"[1]; 2 nM [3H]-rolipram, 30°C, 1 h, read-out: EC50 (PDE4H) for displacing [3H]-rolipram binding",107 ± 39.5 µM
same,PDE4H/PDE4L ratio (therapeutic ratio),[1]; EC50 of [3H]-rolipram displacement / IC50 of PDE4 inhibition,35.5
same,IC50,PDE1,22.1 ± 6.4 µM
same,Penh value at the baseline,[2]; 3 μmol/kg p.o.,2.45 ± 0.04
same,Penh value with PBS nebulization,[2]; 3 μmol/kg p.o.,2.43 ± 0.05
same,Penh value at the baseline,[2]; 10 μmol/kg p.o.,2.36 ± 0.05
same,Penh value with PBS nebulization,[2]; 10 μmol/kg p.o.,2.38 ± 0.06
same,Penh value at the baseline,[2]; 30 μmol/kg p.o.,2.43 ± 0.03
same,Penh value with PBS nebulization,[2]; 30 μmol/kg p.o.,2.44 ± 0.06
same,effect on enhancement of Penh values induced by MCh,"[2]; 3~30 μmol/kg p.o., 25 and 50 mg/ml MCh",dose-dependently and significantly attenuated
same,RL value at the baseline,[3]; 3 μmol/kg p.o.,1.06 ± 0.05 cmH2O/ml/s
same,RL value of PBS nebulization,[3]; 3 μmol/kg p.o.,1.10 ± 0.07 cmH2O/ml/s
same,RL value at the baseline,[3]; 10 μmol/kg p.o.,1.08 ± 0.06 cmH2O/ml/s
same,RL value of PBS nebulization,[3]; 10 μmol/kg p.o.,1.06 ± 0.04 cmH2O/ml/s
same,RL value at the baseline,[3]; 30 μmol/kg p.o.,1.09 ± 0.07 cmH2O/ml/s
same,RL value of PBS nebulization,[3]; 30 μmol/kg p.o.,1.07 ± 0.06 cmH2O/ml/s
same,effect on MCh-induced decrease of lung dynamic compliance (Cdyn),[3]; [4],significantly suppressed
same,effect on MCh-induced increase of airway resistance (RL),[3]; [4],significantly suppressed
